Counter-ions that a name gives are not always drawn.
What was measured:
[1] = target: T1, IRAK1 (Homo sapiens, UniProt P51617); assay: IRAK1 enzymatic assay (ADP-Glo luminescence); format: biochemical; details: purified human recombinant His-TEV-IRAK1 (194-712)
T1 construct: His-TEV-IRAK1 (194-712); His (N); TEV cleavage site (N)
Summary of the method: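 Luminescent ADP-Glo read-out of ATP turnover by purified His-TEV-IRAK1 (194-712) at 0.3 μg/ml after a 2-hour RT reaction. Compounds, serially diluted from 10 μM to 0.5 nM, were preincubated with enzyme 15 minutes in Hepes pH 7.0 buffer with MgCl2, DTT, EGTA and Triton X-100.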

[2] = target: T2, IRAK4 (Homo sapiens, UniProt Q9NWZ3); assay: IRAK4 enzymatic assay (ADP-Glo luminescence); format: biochemical; details: purified human recombinant His-TEV-IRAK4 (1-460), ATP 2 μM
T2 construct: His-TEV-IRAK4 (1-460); His (N); TEV cleavage site (N)
T2 sequence (Q9NWZ3 1-460): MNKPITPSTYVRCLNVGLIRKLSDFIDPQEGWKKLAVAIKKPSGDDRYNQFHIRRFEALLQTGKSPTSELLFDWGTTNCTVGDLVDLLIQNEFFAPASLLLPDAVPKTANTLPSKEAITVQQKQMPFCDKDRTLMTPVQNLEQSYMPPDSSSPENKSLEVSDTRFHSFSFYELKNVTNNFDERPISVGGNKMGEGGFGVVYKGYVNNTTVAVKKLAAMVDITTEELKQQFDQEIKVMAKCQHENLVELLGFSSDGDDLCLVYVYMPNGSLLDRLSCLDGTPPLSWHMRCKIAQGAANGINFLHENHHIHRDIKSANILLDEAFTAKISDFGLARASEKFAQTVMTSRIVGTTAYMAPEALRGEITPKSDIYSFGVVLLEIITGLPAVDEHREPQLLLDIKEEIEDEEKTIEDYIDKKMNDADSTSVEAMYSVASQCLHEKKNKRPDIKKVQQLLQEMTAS
Summary of the method: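 ADP-Glo luminescence read-out after a 2 h RT kinase reaction with 2 μM ATP and 300 nM biotinylated STK1 peptide. Enzyme (His-TEV-IRAK4 1-460, 0.3 μg/ml) first incubated 15 min with serially diluted compounds (10 μM–0.5 nM) in 50 mM Hepes pH 7.0, 10 mM MgCl2, 5 mM MnCl2.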

T1 sequence (P51617 194-712): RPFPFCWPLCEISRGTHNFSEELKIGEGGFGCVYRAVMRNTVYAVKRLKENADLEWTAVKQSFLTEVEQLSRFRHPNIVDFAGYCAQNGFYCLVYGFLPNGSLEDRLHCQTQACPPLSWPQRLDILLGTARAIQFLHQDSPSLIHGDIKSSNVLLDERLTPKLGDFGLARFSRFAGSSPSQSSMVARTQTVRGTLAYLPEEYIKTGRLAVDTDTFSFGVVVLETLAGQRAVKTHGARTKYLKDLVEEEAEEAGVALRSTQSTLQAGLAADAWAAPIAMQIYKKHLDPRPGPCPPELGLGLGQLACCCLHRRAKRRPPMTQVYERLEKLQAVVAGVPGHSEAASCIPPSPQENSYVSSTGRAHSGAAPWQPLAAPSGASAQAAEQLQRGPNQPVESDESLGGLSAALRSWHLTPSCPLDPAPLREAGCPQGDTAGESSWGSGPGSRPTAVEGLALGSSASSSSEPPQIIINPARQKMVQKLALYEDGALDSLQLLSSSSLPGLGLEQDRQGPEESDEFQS

Row | SMILES | IC50 [1] | IC50 [2]
1 | O=C(/N=c1\[nH]c2cc(N3CCOCC3=O)ccc2n1C1CCS(=O)(=O)CC1)c1cccc(C(F)(F)F)c1 [Compound 136, (E)-N-(1-(1,1-dioxidotetrahydro-2H-thiopyran-4-yl)-5-(3-oxomorpholino)-1H-benzo[d]imidazol-2(3H)-ylidene)-3-(trifluoromethyl)benzamide] | 100 to 1000 nM | ≤ 100 nM
2 | O=C(O)CCCn1/c(=N/C(=O)c2cccc(C(F)F)c2)[nH]c2cc(N3CCCOC3=O)ccc21 [Compound 169, (E)-4-(2-((3-(difluoromethyl)benzoyl)imino)-5-(2-oxo-1,3-oxazinan-3-yl)-2,3-dihydro-1H-benzo[d]imidazol-1-yl)butanoic acid] | > 1000 nM | ≤ 100 nM
3 | COc1cc2c(cc1N1CCOCC1=O)[nH]/c(=N\C(=O)c1cccc(C(F)F)c1)n2[C@H](C)CCO [Compound 40, (R,E)-3-(difluoromethyl)-N-(1-(4-hydroxybutan-2-yl)-6-methoxy-5-(3-oxomorpholino)-1H-benzo[d]imidazol-2(3H)-ylidene)benzamide] | ≤ 100 nM | ≤ 100 nM
4 | O=C(/N=c1\[nH]c2cc(N3CCCOC3=O)ccc2n1C1CC1)c1cccc(C(F)(F)F)c1 [Compound 172, (E)-N-(1-cyclopropyl-5-(2-oxo-1,3-oxazinan-3-yl)-1H-benzo[d]imidazol-2(3H)-ylidene)-3-(trifluoromethyl)benzamide] | > 1000 nM | ≤ 100 nM
5 | O=C(/N=c1\[nH]c2cc(N3CCOCC3=O)c(F)cc2n1CCCO)c1cccc(C(F)F)c1 [Compound 140, (E)-3-(difluoromethyl)-N-(6-fluoro-1-(3-hydroxypropyl)-5-(3-oxomorpholino)-1H-benzo[d]imidazol-2(3H)-ylidene)benzamide] | 100 to 1000 nM | ≤ 100 nM
6 | O=C(/N=c1\[nH]c2cc(N3CCOCC3=O)ccc2n1C1(CCO)CCCCC1)c1cccc(C(F)(F)F)c1 [Compound 114, (E)-N-(1-(1-(2-hydroxyethyl)cyclohexyl)-5-(3-oxomorpholino)-1H-benzo[d]imidazol-2(3H)-ylidene)-3-(trifluoromethyl)benzamide] | > 1000 nM | > 1000 nM
7 | COc1cc2c(cc1N1CCOCC1=O)[nH]/c(=N\C(=O)c1cccc(C#N)c1)n2CC1(CO)CC1 [Compound 51, (E)-3-cyano-N-(1-((1-(hydroxymethyl)cyclopropyl)methyl)-6-methoxy-5-(3-oxomorpholino)-1H-benzo[d]imidazol-2(3H)-ylidene)benzamide] | 100 to 1000 nM | ≤ 100 nM
8 | O=C(/N=c1\[nH]c2cc(N3CCCOC3=O)ccc2n1CC1CCOCC1)c1cccc(C(F)(F)F)c1 [Compound 155, (E)-N-(5-(2-oxo-1,3-oxazinan-3-yl)-1-((tetrahydro-2H-pyran-4-yl)methyl)-1H-benzo[d]imidazol-2(3H)-ylidene)-3-(trifluoromethyl)benzamide] | 100 to 1000 nM | ≤ 100 nM
9 | N#Cc1cccc(C(=O)/N=c2\[nH]c3cc(N4CCOCC4=O)ccc3n2CCCO)c1 [Compound 3, (E)-3-cyano-N-(1-(3-hydroxypropyl)-5-(3-oxomorpholino)-1H-benzo[d]imidazol-2(3H)-ylidene)benzamide] | 100 to 1000 nM | ≤ 100 nM
10 | O=C(/N=c1\[nH]c2cc(N3CCOCC3=O)ccc2n1[C@H]1CC[C@@H](O)CC1)c1cccc(C(F)F)c1 [Compound 56, cis-(E)-3-(difluoromethyl)-N-(1-(4-hydroxycyclohexyl)-5-(3-oxomorpholino)-1H-benzo[d]imidazol-2(3H)-ylidene)benzamide] | ≤ 100 nM | ≤ 100 nM
11 | CCNC(=O)N1CCC(n2/c(=N/C(=O)c3cccc(C(F)F)c3)[nH]c3cc(N4CCOCC4=O)ccc32)CC1 [Compound 135, (E)-4-(2-((3-(difluoromethyl)benzoyl)imino)-5-(3-oxomorpholino)-2,3-dihydro-1H-benzo[d]imidazol-1-yl)-N-ethylpiperidine-1-carboxamide] | ≤ 100 nM | ≤ 100 nM
12 | C[C@H](CCO)n1/c(=N/C(=O)c2cccc(C(F)(F)F)c2)[nH]c2cc(N3CCCOC3=O)ccc21 [Compound 43, (R,E)-N-(1-(4-hydroxybutan-2-yl)-5-(2-oxo-1,3-oxazinan-3-yl)-1H-benzo[d]imidazol-2(3H)-ylidene)-3-(trifluoromethyl)benzamide] | 100 to 1000 nM | ≤ 100 nM
13 | NC(=O)[C@H]1CC[C@@H](n2/c(=N/C(=O)c3cccc(C(F)(F)F)c3)[nH]c3cc(N4CCOCC4=O)ccc32)CC1 [Compound 150, (E)-N-(1-((1s,4s)-4-carbamoylcyclohexyl)-5-(3-oxomorpholino)-1H-benzo[d]imidazol-2(3H)-ylidene)-3-(trifluoromethyl)benzamide] | 100 to 1000 nM | ≤ 100 nM
14 | CSCCCn1/c(=N/C(=O)c2cccc(C(F)F)c2)[nH]c2cc(N3CCOCC3=O)ccc21 [Compound 92, (E)-3-(difluoromethyl)-N-(1-(3-(methylthio)propyl)-5-(3-oxomorpholino)-1H-benzo[d]imidazol-2(3H)-ylidene)benzamide] | 100 to 1000 nM | ≤ 100 nM
15 | COc1ccc(C(=O)/N=c2\[nH]c3cc(N4CCOCC4=O)ccc3n2CCCO)cc1C#N [Compound 38, (E)-3-cyano-N-(1-(3-hydroxypropyl)-5-(3-oxomorpholino)-1H-benzo[d]imidazol-2(3H)-ylidene)-4-methoxybenzamide] | > 1000 nM | > 1000 nM
16 | O=C(/N=c1\[nH]c2cc(N3CCOCC3=O)ccc2n1C1CCCC(CO)C1)c1cccc(C(F)F)c1 (stereo not drawn) [Compound 121, (E)-3-(difluoromethyl)-N-(1-(3-(hydroxymethyl)cyclohexyl)-5-(3-oxomorpholino)-1H-benzo[d]imidazol-2(3H)-ylidene)benzamide] | 100 to 1000 nM | ≤ 100 nM

Second part, the compound after the results:

Row | IC50 [1] | IC50 [2] | SMILES
17 | ≤ 100 nM | ≤ 100 nM | CC(F)(CO)Cn1/c(=N/C(=O)c2cccc(C(F)(F)F)c2)[nH]c2cc(N3CCCOC3=O)ccc21 (stereo not drawn) [Example 226, (E)-N-(1-(2-fluoro-3-hydroxy-2-methylpropyl)-5-(2-oxo-1,3-oxazinan-3-yl)-1H-benzo[d]imidazol-2(3H)-ylidene)-3-(trifluoromethyl)benzamide]
18 | 100 to 1000 nM | ≤ 100 nM | O=C(/N=c1\[nH]c2cc(N3CCCN(C4CC4)CC3=O)ccc2n1CCCO)c1cccc(C(F)(F)F)c1 [Example 192, (E)-N-(5-(4-cyclopropyl-2-oxo-1,4-diazepan-1-yl)-1-(3-hydroxypropyl)-1H-benzo[d]imidazol-2(3H)-ylidene)-3-(trifluoromethyl)benzamide]
19 | ≤ 100 nM | ≤ 100 nM | O=C(/N=c1\[nH]c2cc(N3C(=O)CN(C4CC4)CC34CC4)ccc2n1CCCO)c1cccc(C(F)(F)F)c1 [Example 197, (E)-N-(5-(7-cyclopropyl-5-oxo-4,7-diazaspiro[2.5]octan-4-yl)-1-(3-hydroxypropyl)-1H-benzo[d]imidazol-2(3H)-ylidene)-3-(trifluoromethyl)benzamide]
20 | ≤ 100 nM | ≤ 100 nM | O=C(/N=c1\[nH]c2cc(N3CCSCC3=O)ccc2n1CCCO)c1cccc(C(F)F)c1 [Compound 187, (E)-3-(difluoromethyl)-N-(1-(3-hydroxypropyl)-5-(3-oxothiomorpholino)-1H-benzo[d]imidazol-2(3H)-ylidene)benzamide]
21 | 100 to 1000 nM | ≤ 100 nM | CC1(C)NCCN(c2ccc3c(c2)[nH]/c(=N\C(=O)c2cccc(C(F)(F)F)c2)n3CCCO)C1=O [Compound 191, (E)-N-(5-(3,3-dimethyl-2-oxopiperazin-1-yl)-1-(3-hydroxypropyl)-1H-benzo[d]imidazol-2(3H)-ylidene)-3-(trifluoromethyl)benzamide hydrochloride]
22 | 100 to 1000 nM | ≤ 100 nM | O=C(/N=c1\[nH]c2cc(N3CCCOC3=O)ccc2n1CC1(F)CCOCC1)c1cccc(C(F)(F)F)c1 [Example 229, (E)-N-(1-((4-fluorotetrahydro-2H-pyran-4-yl)methyl)-5-(2-oxo-1,3-oxazinan-3-yl)-1H-benzo[d]imidazol-2(3H)-ylidene)-3-(trifluoromethyl)benzamide]
23 | 100 to 1000 nM | ≤ 100 nM | C#CCn1/c(=N/C(=O)c2cccc(C(F)(F)F)c2)[nH]c2cc(N3CCCOC3=O)ccc21 [Compound 175, (E)-N-(5-(2-oxo-1,3-oxazinan-3-yl)-1-(prop-2-yn-1-yl)-1H-benzo[d]imidazol-2(3H)-ylidene)-3-(trifluoromethyl)benzamide]
24 | ≤ 100 nM | ≤ 100 nM | COc1cc2c(cc1N1CCCOC1=O)[nH]/c(=N\C(=O)c1cccc(C(F)F)c1)n2CCCO [Example 207, (E)-3-(difluoromethyl)-N-(1-(3-hydroxypropyl)-6-methoxy-5-(2-oxo-1,3-oxazinan-3-yl)-1H-benzo[d]imidazol-2(3H)-ylidene)benzamide]

Reference: patent US10059701B2 (Merck Patent GmbH, priority 2015, dated 2018)
